Laboratory results as given in patent publication US6512102B1, “Compositions and methods of diagnosis and treatment using casein kinase I” (Chiron Corporation, priority 1998, dated 2003).

Tested on: Lef-1 dependent transcription
Assay: Lef-1 enhancer luciferase reporter assay in Cos cells
Type: cell-based
Details: GSK3 over-expressed / cotransfected
Method: Combinations of Wnt-1, CKIε, CKI kinase dead variant (lys→arg 38) and Lef-1 were transfected into Cos cells with a luciferase gene driven by multiple copies of Lef enhancer elements. As an internal control of transfection efficiency, the β-galactosidase gene driven by the SV40 promoter was co-transfected in all samples. 24 hours after transfection, cells were lysed and the lysate was tested for luciferase activity. The luciferase activity was normalized with respect to β-galactosidase activity. […] Dorsoanterior index (DAI) grade numbers were assigned to the phenotypes of the embryos. A grade 5 embryo is normal; a grade 3 embryo is cyclopic (one eye); a grade 1 embryo has a tail fin and somites but no head (acephalic); and a grade 0 embryo has no dorsoanterior structures (Kao et al., 1988).
The effect of CKI on Lef-1 dependent transcription in Cos mammalian cells was examined. A luciferase reporter gene driven by multiple copies of the Lef-I enhancer sequence was used. When only Wnt-I or lef-I or CKIε was transfected with the reporter construct, luciferase activity was induced only 2 to 3 fold (FIG. 1A). When Lef-1 was cotransfected with either Wnt-1 or CKIε, luciferase activity was induced 30 or 12 fold respectively.
Luciferase reporter plasmid contains multiple Lef-I enhancer sites upstream of the fos basal promoter. […]

Substance: GSK3: GSK3 over-expressed from cotransfected plasmid [reference compound]
- luciferase activity transduced by CKIε: inhibited the effect of CKI in promoting transcription
